Reference: publication PMC11477877, “Carbohydrate-Binding Mechanism of the Coagulant Lectin from Moringa oleifera Seeds (cMoL) Is Related to the Dimeric Protein Structure” (Molecules, 2024)

Target: T1, cMoL (coagulant lectin from Moringa oleifera seeds) (Moringa oleifera, UniProt Z9EIH6G9R5)
T1 construct: native, purified from seeds (ammonium sulfate, guar gel column); 101 residues; homodimer
T1 sequence (Z9EIH6G9R5 1-101): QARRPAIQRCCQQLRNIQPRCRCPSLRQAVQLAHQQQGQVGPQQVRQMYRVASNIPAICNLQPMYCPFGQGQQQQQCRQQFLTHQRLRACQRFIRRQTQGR
Assay: intrinsic fluorescence quenching, modified Stern-Volmer
Assay type: binding
Details: 298 K; water; excitation 280 nm; Hill h ~2 (dimer)
Text: intrinsic fluorescence quenching, modified Stern-Volmer on cMoL (coagulant lectin from Moringa oleifera seeds)

| Ka (10^2 M^-1) | SMILES |
| --- | --- |
| 0.1239 ± 0.00004 10^2 M^-1 | OC[C@H]1OC(O)[C@H](O)[C@@H](O)[C@H]1O (some centres unmarked) [galactose] |
| 0.2979 ± 0.00007 10^2 M^-1 | OC[C@H]1OC(O)[C@H](O)[C@@H](O)[C@@H]1O (some centres unmarked) [glucose] |
